From PubChem BioAssay AID492987 (Johns Hopkins Ion Channel Center, 2010)
Calls of active or inactive are those of the source.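 How the source made its calls: active means over 30% block of the TRPC6 ion channel at some tested dose, plus a fitted dose-response curve; inactive means no block at any dose, or no fitted curve.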

target: Short transient receptor potential channel 6 (Mus musculus) (UniProt Q61143); assay: mouse TRPC6 channel blockers, concentration series – HEK293 cells, membrane potential dye, IC50, selectivity assay for selective TRPC4 inhibitor project, dose response (AID 492987); conditions: at 20 µM (top of the series)
Sequence (Q61143 whole entry, looked up): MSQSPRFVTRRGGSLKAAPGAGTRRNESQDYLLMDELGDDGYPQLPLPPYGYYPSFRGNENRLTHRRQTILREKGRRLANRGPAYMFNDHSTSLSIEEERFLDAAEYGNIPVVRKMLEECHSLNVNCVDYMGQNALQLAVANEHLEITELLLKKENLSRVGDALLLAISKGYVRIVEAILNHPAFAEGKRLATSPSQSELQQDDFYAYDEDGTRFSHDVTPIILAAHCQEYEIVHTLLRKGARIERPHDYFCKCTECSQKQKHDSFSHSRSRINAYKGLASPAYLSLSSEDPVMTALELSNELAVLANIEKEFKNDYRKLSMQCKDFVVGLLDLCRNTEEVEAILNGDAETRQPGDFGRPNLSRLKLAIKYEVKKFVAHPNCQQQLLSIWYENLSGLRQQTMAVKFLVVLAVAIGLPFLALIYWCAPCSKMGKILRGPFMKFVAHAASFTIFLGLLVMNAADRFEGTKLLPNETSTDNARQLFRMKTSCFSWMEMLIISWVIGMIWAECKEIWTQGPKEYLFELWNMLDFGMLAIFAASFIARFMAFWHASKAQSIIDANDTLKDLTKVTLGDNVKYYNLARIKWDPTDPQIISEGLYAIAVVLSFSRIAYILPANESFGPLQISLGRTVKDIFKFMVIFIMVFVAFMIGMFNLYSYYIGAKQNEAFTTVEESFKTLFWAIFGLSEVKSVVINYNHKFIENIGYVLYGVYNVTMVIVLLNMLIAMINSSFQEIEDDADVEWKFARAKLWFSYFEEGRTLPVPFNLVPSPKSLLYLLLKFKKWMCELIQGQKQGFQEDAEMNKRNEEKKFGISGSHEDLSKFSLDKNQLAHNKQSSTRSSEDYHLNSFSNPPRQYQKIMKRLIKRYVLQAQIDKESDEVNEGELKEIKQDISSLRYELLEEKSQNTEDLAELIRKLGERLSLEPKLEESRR

Structure (SMILES)	fluorescence ratio, lower = inhibition
Cc1ccnc(N2CCCC2)n1	inactive
Cc1cc(N2CCCCC2)nc2c(C)cccc12	inactive
COCCN(C)c1cc(C)c2ccccc2n1	inactive
Cc1cc(N2CCOc3ccccc32)nc2ccccc12	inactive
CCN(CC)c1cc(C)c2ccccc2n1	inactive
c1ccc(-c2cc(N3CCCCC3)nc3ccccc23)cc1	inactive
Cc1cc(N2CCN(CC3CCCO3)CC2)nc2ccccc12 (stereo not given)	inactive
Cc1cc(N2CCN(c3ncccn3)CC2)nc2ccccc12	inactive
COc1ccccc1N1CCN(c2cc(C)c3ccccc3n2)CC1	inactive
c1ccc(-c2cc(N3CCCCCC3)nc3ccccc23)cc1	inactive
Cc1ccnc(N2CCCC2)c1	inactive
Cc1ccnc(N2CCCCC2)c1	inactive
Cc1ccnc(N2CCCCCC2)n1	inactive
Cc1cc(N2CCOCC2)nc2ccccc12	inactive
COc1ccc(N2CCN(c3cc(C)c4ccccc4n3)CC2)cc1	inactive
Cc1ccnc(N2CCCCC2)n1	inactive
Cc1cc(N2CCCC(O)C2)nc2ccccc12 (stereo not given)	inactive
FC(F)(F)c1cc(N2CCCCCC2)nc2ccccc12	inactive
CCc1ccc2nc(N3CCCCCC3)cc(C)c2c1	inactive
Cc1cc(N2CCCCCC2)nc2ccc(F)cc12	inactive
Cc1cc(N2CC(C)CC(C)C2)nc2ccccc12 (stereo not given)	inactive
Cc1cc(N2CCN(c3ccccc3C#N)CC2)nc2ccccc12	inactive
Cc1cc(N2CCC(C)CC2)nc2ccccc12	inactive
Cc1cc(N(C)CCN(C)C)nc2ccccc12	inactive
Cc1cc(N2CCN(C)CC2)nc2ccccc12	inactive
FC(F)(F)c1cc(N2CCCCC2)nc2ccccc12	inactive
Cc1ccnc(N2CCCCCC2)c1	inactive
Cc1cc(N2CCCCCC2)nc2c(C)cccc12	inactive
c1ccc(-c2cc(N3CCCC3)nc3ccccc23)cc1	inactive

same assay, conditions: membrane potential dye fluorescence

Structure (SMILES)	IC50 [µM]
Cc1cc(N2CCCCC2)nc2ccccc12	17.9
